Measured values: the NIST ThermoML archive (doi:10.1016/j.jct.2012.03.003)

Assay: xn = mol fraction of the nth substance listed
Conditions: Liquid, Vibrating tube method

COc1cc2c(cc1O)CC1c3c(cc(O)c(OC)c3-2)CCN1C (stereo not given) [boldine] + CCO
Conditions	mass density [kg/m3]
332.93 K, 6000 kPa, x1 = 0.0074	775.81
332.93 K, 7000 kPa, x1 = 0.0074	776.8
332.93 K, 8000 kPa, x1 = 0.0074	777.8
332.93 K, 9000 kPa, x1 = 0.0074	778.8
332.93 K, 10000 kPa, x1 = 0.0074	779.77
332.93 K, 11000 kPa, x1 = 0.0074	780.75
332.93 K, 12000 kPa, x1 = 0.0074	781.71
332.93 K, 13000 kPa, x1 = 0.0074	782.66
332.93 K, 14000 kPa, x1 = 0.0074	783.61
332.93 K, 15000 kPa, x1 = 0.0074	784.53
332.93 K, 16000 kPa, x1 = 0.0074	785.45
332.93 K, 17000 kPa, x1 = 0.0074	786.34
332.93 K, 18000 kPa, x1 = 0.0074	787.23
332.93 K, 19000 kPa, x1 = 0.0074	788.09
332.93 K, 20000 kPa, x1 = 0.0074	788.95
332.95 K, 1000 kPa, x1 = 0.0196	799.67
332.95 K, 2000 kPa, x1 = 0.0196	800.63
332.95 K, 3000 kPa, x1 = 0.0196	801.6
332.95 K, 4000 kPa, x1 = 0.0196	802.56
332.95 K, 5000 kPa, x1 = 0.0196	803.52
332.95 K, 6000 kPa, x1 = 0.0196	804.48
332.95 K, 7000 kPa, x1 = 0.0196	805.45
332.95 K, 8000 kPa, x1 = 0.0196	806.4
332.95 K, 9000 kPa, x1 = 0.0196	807.35
332.95 K, 10000 kPa, x1 = 0.0196	808.29
332.95 K, 11000 kPa, x1 = 0.0196	809.23
332.95 K, 12000 kPa, x1 = 0.0196	810.15
332.95 K, 13000 kPa, x1 = 0.0196	811.07
332.95 K, 14000 kPa, x1 = 0.0196	811.98
332.95 K, 15000 kPa, x1 = 0.0196	812.86
332.95 K, 16000 kPa, x1 = 0.0196	813.75
332.95 K, 17000 kPa, x1 = 0.0196	814.61
332.95 K, 18000 kPa, x1 = 0.0196	815.46
332.95 K, 19000 kPa, x1 = 0.0196	816.3
332.95 K, 20000 kPa, x1 = 0.0196	817.11
333 K, 1000 kPa, x1 = 0.0267	811.86
333 K, 2000 kPa, x1 = 0.0267	812.8
333 K, 3000 kPa, x1 = 0.0267	813.76
333 K, 4000 kPa, x1 = 0.0267	814.69
333 K, 5000 kPa, x1 = 0.0267	815.65
333 K, 6000 kPa, x1 = 0.0267	816.59
333 K, 7000 kPa, x1 = 0.0267	817.53
333 K, 8000 kPa, x1 = 0.0267	818.45
333 K, 9000 kPa, x1 = 0.0267	819.38
333 K, 10000 kPa, x1 = 0.0267	820.29
333 K, 11000 kPa, x1 = 0.0267	821.22
333 K, 12000 kPa, x1 = 0.0267	822.11
333 K, 13000 kPa, x1 = 0.0267	823.01
333 K, 14000 kPa, x1 = 0.0267	823.9
333 K, 15000 kPa, x1 = 0.0267	824.77
333 K, 16000 kPa, x1 = 0.0267	825.63
333 K, 17000 kPa, x1 = 0.0267	826.48
333 K, 18000 kPa, x1 = 0.0267	827.32
333 K, 19000 kPa, x1 = 0.0267	828.13
333 K, 20000 kPa, x1 = 0.0267	828.94
333.04 K, 1000 kPa, x1 = 0.0136	784.43
333.04 K, 2000 kPa, x1 = 0.0136	785.41
333.04 K, 3000 kPa, x1 = 0.0136	786.41
333.04 K, 4000 kPa, x1 = 0.0136	787.39
333.04 K, 5000 kPa, x1 = 0.0136	788.38
333.04 K, 6000 kPa, x1 = 0.0136	789.37
333.04 K, 7000 kPa, x1 = 0.0136	790.36
333.04 K, 8000 kPa, x1 = 0.0136	791.33
333.04 K, 9000 kPa, x1 = 0.0136	792.31
333.04 K, 10000 kPa, x1 = 0.0136	793.27
333.04 K, 11000 kPa, x1 = 0.0136	794.24
333.04 K, 12000 kPa, x1 = 0.0136	795.2
333.04 K, 13000 kPa, x1 = 0.0136	796.14
333.04 K, 14000 kPa, x1 = 0.0136	797.07
333.04 K, 15000 kPa, x1 = 0.0136	797.98
333.04 K, 16000 kPa, x1 = 0.0136	798.89
333.04 K, 17000 kPa, x1 = 0.0136	799.78
333.04 K, 18000 kPa, x1 = 0.0136	800.65
333.04 K, 19000 kPa, x1 = 0.0136	801.51
333.04 K, 20000 kPa, x1 = 0.0136	802.34
